According to patent US20250171556A1, “MULTISPECIFIC ANTIBODIES FOR TREATING CD47-ASSOCIATED DISEASES” (Virtuoso BINco, Inc., priority 2021, published 2025):

Tests used:
[1] = tested on: DLD-1 tumor cells; test: DLD-1 colorectal cancer xenograft model; assay type: in vivo, mouse; conditions: 5 doses, irinotecan 30 mg/kg ip twice per week
Protocol: DLD-1 tumor cells were cultured in RPMI 1640 medium supplemented with 10% FBS at 37° C. in an atmosphere of 5% CO2 in air. Female Balb/c nude mice (Shanghai Lingchang Laboratory Animal Technology Co., Ltd.) of 6-8 weeks in age were inoculated subcutaneously with 5×10^6 cells in 0.1 mL PBS for tumor development. Once the average tumor volume reached approximately 150-200 mm^3, the animals were randomized to 6 animals per group and started treatment. Oxaliplatin and 5-fluorouracil (5-FU) were administered through intraperitoneal injection three times per week at a dose of 8 mg/kg and 35 mg/kg, respectively. A total of 4 doses of oxaliplatin and 5 doses of 5-FU were given. Irinotecan was administered through intraperitoneal injection twice per week at a dose of 30 mg/kg for a total of 6 doses. CD47×EpCAM_v5 bispecific antibody was administered through bolus tail vein injection at 20 mg/kg weekly for a total of 5 doses. For the combination groups, the route and dosing schedule were the same as in the single agent treatment groups. Tumor volume was measured twice weekly.
DLD-1 xenograft model was established as described in Example 13. Treatment was initiated once the average tumor volume reached approximately 150-200 mm^3. Irinotecan was administered through intraperitoneal injection twice per week at a dose of 30 mg/kg for a total of 5 doses. […]

[2] = tested on: Hep3B2.1-7 tumor cells; test: Hep3B2.1-7 hepatocellular carcinoma xenograft model; assay type: in vivo, mouse; conditions: CD47×EpCAM_v5 20 mg/kg iv weekly, 4 doses, irinotecan 15 mg/kg ip twice per week
Protocol: Hep3B2.1-7 tumor cells were cultured in EMEM medium supplemented with 10% FBS at 37° C. in an atmosphere containing 5% CO2 in air. Female Balb/c nude mice (Shanghai Lingchang Laboratory Animal Technology Co., Ltd.) of 6-8 weeks in age were inoculated subcutaneously with 8×10^6 cells in 0.1 mL of PBS for tumor development. Once the average tumor volume reached approximately 150-200 mm^3, the animals were randomized to 6 animals per group and started treatment. Irinotecan was administered through intraperitoneal injection twice per week at a dose of 15 mg/kg for a total of 4 doses. CD47×EpCAM_v5 bispecific antibody was administered through bolus tail vein injection at 20 mg/kg weekly for a total of 4 doses. Combination groups followed the same dosing schedule and route of administration as their corresponding monotherapy groups. Tumor volume was measured twice weekly.

CCc1c2c(nc3ccc(OC(=O)N4CCC(N5CCCCC5)CC4)cc13)-c1cc3c(c(=O)n1C2)COC(=O)[C@]3(O)CC [irinotecan, reference compound]
Tumor growth in DLD-1 model, single agent (Example 13) ([1]; CD47×EpCAM_v5 20 mg/kg iv weekly, 6 doses): not very effective
Tumor growth in DLD-1 model, single agent (Example 14) ([1]; antibodies 20 mg/kg iv weekly): partial tumor growth inhibition
Tumor growth in Hep3B2.1-7 model, single agent [2]: slowed tumor growth but did not inhibit it
